Ki and IC50 data for six molecules are collected here from patent US20230312482A1, “SOS1 INHIBITORS” (Mirati Therapeutics, Inc., priority 2020, published 2023).

Assay [1] deals with T1, recombinant human SOS1 polypeptide (amino acids 560-1049) (Homo sapiens, UniProt Q07889).
T1 construct: corresponding to amino acids 560-1049, expressed in E. Coli; His (N); TEV site (N); made in house; host or cells: E. coli
T1 sequence (Q07889 560-1049): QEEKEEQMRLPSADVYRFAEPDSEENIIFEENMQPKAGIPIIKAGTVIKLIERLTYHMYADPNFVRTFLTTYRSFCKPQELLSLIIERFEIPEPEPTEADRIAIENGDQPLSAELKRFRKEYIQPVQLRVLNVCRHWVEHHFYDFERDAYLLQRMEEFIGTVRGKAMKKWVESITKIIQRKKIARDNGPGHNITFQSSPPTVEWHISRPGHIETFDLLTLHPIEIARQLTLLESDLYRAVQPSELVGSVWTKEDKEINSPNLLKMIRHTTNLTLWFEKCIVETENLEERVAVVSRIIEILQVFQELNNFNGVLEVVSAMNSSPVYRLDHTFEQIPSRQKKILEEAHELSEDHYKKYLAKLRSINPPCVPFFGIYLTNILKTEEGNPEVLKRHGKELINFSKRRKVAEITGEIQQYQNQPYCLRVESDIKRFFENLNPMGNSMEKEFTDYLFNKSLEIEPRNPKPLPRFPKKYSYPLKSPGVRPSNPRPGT
As to the kind of experiment: HTRF displacement assay, binding to SOS1. As to conditions: HTRF displacement of Cy5 labelled tracer, 1-hour incubation, Morrison equation. (In TR-FRET formats the signal depends on donor and acceptor labels being close together.)
Procedure: The ability of a compound of Formula (I) to bind to SOS1 was measured using a HTRF displacement assay. […] The HTRF ratio was calculated using the formula: [emission ⅟emission 2]*10000.
Background signals were calculated from well with a 10 µM inhibitor, known to inhibit 100% at that concentration. The background subtracted signals were converted to % binding relative to DMSO controls. Data were analyzed using XLFIT software (IDBS) using a Morrison equation for competitive binding and Ki’s were generated for compound of Formula (I).

Assay [2] has as its system pERK in MKN1 cells or H358. As to the kind of experiment: pERK inhibition in MKN1 or H358 cells (In-Cell Western). The assay is classed as cell-based. As to conditions: GAPDH normalized, 1 hour with compound, MKN1 or H358 cells (not specified which). As for the experimental part:
This Example illustrates that exemplary compounds of the present invention prevent KRas-mediated GTP nucleotide exchange mediated by SOS1 to inhibit KRas activity thereby inhibiting the generation of the downstream effector pERK.
(§1) MKN1 cells (15,000/w) or H358 (30,000/w) were seeded in a black clear flat bottom 96-well cell culture plate (Corning, #3904) and incubated at 37° C. overnight. Assay day 1, cells were dosed with compounds of Formula (I) with a […] starting concentration and serially diluted 3x for a total of 9 concentrations. The cells were incubated for 1 hour with the compounds solubilized in DMSO at 37° C. Cells were immediately fixed by adding 50 µL of 4% formaldehyde to all wells in a fume hood and the plates were incubated for 20 minutes at room temperature. The formaldehyde was discarded from the plates and 150 µL of ice-cold methanol was added to permeabilize the cells for 10 minutes at -20° C. The methanol was discarded from each of the plates and any liquid remaining in the plate by tapping the plate against paper towels. Cells were then blocked with 150 µL of Odyssey blocking buffer (LI-COR Biosciences #927-50010) using 0.05% Tween for 1 hour at room temperature on a shaker. The blocking buffer was discarded and 50 µL of primary antibodies pERK (cell signaling Technology #9101L; Rabbit, 1:500) and GapDH (Millipore #MAB34; Mouse, 1:5000) diluted in Odyssey blocking buffer was added. The plates were incubated overnight at 4° C. on a shaker.
On Assay day 2, the primary antibody solution was removed. Each plate was washed 3x times with 150 µL of 1x PBST (PBS + 0.1 % Tween 20) and incubated with 50 µL of secondary antibodies: Anti-Rabbit (LI-COR Biosciences #926-32211) and Anti-Mouse (LI-COR Biosciences #68070) at 1:800 dilution in Odyssey blocking buffer with Tween at room temperature on a shaker for 2 hours (protected from light). The secondary antibody solution as removed and each plate was washed with PBST 3x times. Any liquid remaining was discarded and the plate was imaged using the Licor Odyssey machine according to the manufacturer’s instruction, using a set focus length at 3 mm and both 800 nm and 700 nm filters. The GAPDH normalized scan values for each well were divided by the average of vehicle wells to get the % of pERK inhibition. The IC50 values were then calculated with the Graph pad Prism software.

For the next assay, the system named is pERK in NCI-H1435 cells. As to the kind of experiment: pERK inhibition in NF-1 mutant cell line NCI-H1435. The assay is classed as cell-based. The following applies: NCI-H1435 cells (NF-1 mutation), 1 hour with compound.
Excerpt: This Example illustrates that exemplary compounds of the present invention prevent increased KRas-mediated GTP nucleotide exchange mediated by SOS1 in NF-1 mutant cell lines to inhibit KRas activity thereby inhibiting the generation of the downstream effector pERK.
as §1, with “A cell line harboring activating mutation in NF-1 gene, NCI-H1435 (ATCC CRL-5870) and a cell line harboring activating mutation in NF-2 gene, NCI-H2052 (ATCC CRL-5915) were employed in these studies. NCI-H1435 and NCI-2052” for “MKN1”, “(15,000/w)” for “(15,000/w) or H358 (30,000/w)”
On Assay day 2, the primary antibody solution was removed. […] The IC50 values were then calculated with the Graph pad Prism software.

A further assay deals with pERK in NCI-H2052 cells. Description: pERK inhibition in NF-2 mutant cell line NCI-H2052. The assay is classed as cell-based. As to conditions: Homo sapiens, NCI-H2052 cells (NF-2 mutation), 1 hour with compound.

A word on the Ki: it is the equilibrium dissociation constant of an inhibitor or competing ligand from its target. In general, IC50 refers to the concentration that inhibits the measured activity by half. Take `Cc1c([C@@H](C)Nc2n[nH]c(=O)c3ccc(N4CCOCC4)cc23)cccc1C(F)(F)F` [Example 1-1]: the Ki in assay [1] is 60 nM. For the same molecule, the IC50 in assay [2] is 1320 nM; in the assay on pERK in NCI-H1435 cells it was 1090 nM; in the assay on pERK in NCI-H2052 cells, more than 10000 nM.

As to `CNCc1ccccc1-c1csc([C@@H](C)Nc2n[nH]c(=O)c3ccc(N4CCOCC4)cc23)c1` [Example 1-2], in assay [1], the Ki amounted to 10 nM. Besides, the results for the IC50 (in assay [2]; in the assay with pERK in NCI-H1435 cells; in the assay on pERK in NCI-H2052 cells) were 202 nM, 311 nM and 752 nM, respectively.

As to `CNCc1ccccc1-c1csc([C@@H](C)Nc2nn(C)c(=O)c3ccc(N4CCOCC4)cc23)c1` [Example 1-3, (R)methyl-4-((1-(4-(2-((methylamino)methyl)phenyl)thiophenyl)ethyl)amino)-6-morpholinophthalazin-1 (2H)-one], the Ki in assay [1] amounted to 14 nM. Besides, the values for the IC50 (in assay [2]; in the assay with pERK in NCI-H1435 cells; in the assay with pERK in NCI-H2052 cells) were 265 nM, 522 nM and 997 nM, respectively.

With `Cc1c([C@@H](C)Nc2nn(C)c(=O)c3ccc(N4CCOCC4)cc23)cccc1C(F)(F)F` [Example 1-4], the Ki in assay [1] amounted to 3000 nM.

As for `Cc1c([C@@H](C)Nc2nn(C)c(=O)c3ccc(N4CCNCC4)cc23)cccc1C(F)(F)F` [Example 1-5], the IC50 in assay [2] worked out at 881 nM.

For the molecule `Cc1c([C@@H](C)Nc2n[nH]c(=O)c3ccc(N4CCNCC4)cc23)cccc1C(F)(F)F` [Example 1-6], the half-maximal inhibitory concentration (IC50) in assay [2] is 114 nM.
